Measurements taken from US9297048B2, “Antibiotic resistance profile for Neisseria gonorrhoeae and use of same in diagnosis and treatment of gonorrhea” (Medical Diagnostic Laboratories, LLC, priority 2010, dated 2016).
Read-outs that look alike come from different tables or passages of the source.

Experiments:
[1] = test system: Neisseria gonorrhoeae from clinical sample 1; experiment: Antibiotic resistance panel assay on cervicovaginal swab; conditions: mutations in penA, ponA, porB, mtrR, rpsJ
Description: (§10) Cervicovaginal swabs were obtained using OneSwab® technology.
The presence of Neisseria gonorrhoeae in all three (3) clinical samples were confirmed using our panel assay in which porA was used as a Neisseria gonorrhoeae species-specific marker.

[2] = test system: Neisseria gonorrhoeae strain ATCC 19424; experiment: Neisseria gonorrhoeae antibiotic resistance panel assay (multiplex PCR + allele-specific primer extension); conditions: no mutations/genetic markers detected
Description: (§1) FIG. 1 is a flow chart summarizing the overall steps for our antibiotic resistance assay. Note that the assay involves multiplex PCRs, followed by allele-specific primer extensions and detection means (e.g., capillary electrophoresis, gel electrophoresis or DNA micro array).
(§2) DNA was isolated from either cells obtained from ATCC or clinical samples (e.g., cervical swab) using standard protocols (i.e., guanidine thiocyanate extraction). Multiplex PCR primers were designed using Beacon Designer software v5.0 (Premier Biosoft, CA). The choice of primers was determined using several parameters including primer length, primer melting temperature, primer annealing temperature and GC content. These primers were selected to avoid hairpin and primer-dimer formation (i.e., avoid possible non-specific hybridization). In our assay, we performed four (4) multiplex PCR. This permits a rapid amplification of genes via multiplex PCRs that lack interference.
(§3) Using the selected primers (Example 4), we performed multiplex allele-specific primer extension reactions. The allele-specific primer extension reaction was performed in a single vessel, which contained a total volume of 20 μl. The multiplex allele-specific reactions contained 1×PCR buffer (Invitrogen, CA), 1.25 mM MgCl2, 100 nM of each primer, 5 μM dATP, dTTP, dGTP (Invitrogen, CA), 5 μM biotin-dCTP (Invitrogen, CA), 1 U of Tsp DNA polymerase (Invitrogen, CA), and 5 μl of purified multiplex PCR products from all four (4) multiplex PCRs as templates.
(§4) Thermal cycling conditions for extension reactions were performed in a Biometra 3.0 PCR System (Biometra, Germany) programmed for an initial cycle of 1 min at 95° C. followed by 35 cycles of 30 sec at 95° C., 30 sec at 55° C., and 30 sec at 72° C. A final 10 min extension step was performed at 72° C.
(§5) Detection of allele-specific extended primers is indicative of the presence of SNP in the genes examined. Detection of allele-specific extended primers can be achieved by several methodologies. This includes gel electrophoresis, capillary electrophoresis, as well as DNA microarray. In this particular example, we illustrated the use of a DNA microarray. The working principle of a DNA microarray involves the use of microspheres to hybridize and sort out the allele-specific extended primers, and followed by their subsequent detection using an array reader. The presence of fluorescence is indicative of the presence of an allele-specific extended primer, which in turn is indicative of the presence of a SNP in the gene.
(§6) Extended allele-specific primer hybridizations were performed using oligonucleotide-labeled xMAP flow cytometric microspheres (Luminex Corp, TX) in a hybridization buffer containing 0.2 M NaCl, 0.08% sodium lauroylsarcosine, 0.1 M Tris-HCl, pH 8.0, and 4 mM EDTA pH 8.0. Reactions were carried out in a Biometra 3.0 PCR System (Biometra, Germany) programmed for a 3 min melting at 95° C. and a 15 min hybridization at 37° C.
(§7) Sorting of allele-specific extended primers hybridized to xMAP microspheres was performed using a Bio-Plex 200 (Bio-Rad, CA) flow cytometry instrument.
(§8) 1 μl Streptavidin R-phycoerythrin conjugate (SAPE) and 250 μl 1×NaCl hybridization buffer was added to each sorted xMAP microsphere. Microspheres hybridized to allele-specific extended primers containing biotin-dCTP fluoresce and were detected using the Bio-Plex 200 array reader.
(§9) Using our antibiotic resistance panel assay, we examined the antibiotic resistance profile in these six (6) Neisseria gonorrhoeae strains. The results of the panel assay are presented in graphical format which includes 30 genetic markers (i.e., 28 point mutations in eight (8) chromosomal genes in Neisseria gonorrhoeae, two (2) plasmid genes, as well as 17 alleles in controls). Normal alleles are shown by white bars, mutant alleles, confirming resistance, are shown by black bars (See, FIGS. 3-8). […]

[3] = test system: Neisseria gonorrhoeae strain ATCC 49981; experiment: as above; conditions: concluded from mutations/genetic markers detected
Description: as §1, §2, §3, §4, §5, §6, §7, §8, §9

[4] = test system: Neisseria gonorrhoeae strain ATCC 27628; experiment: as above; conditions: no mutations/genetic markers detected
Description: as §1, §2, §3, §4, §5, §6, §7, §8, §9

[5] = test system: Neisseria gonorrhoeae strain ATCC 31426; experiment: as above; conditions: concluded from mutations/genetic markers detected
Description: as §1, §2, §3, §4, §5, §6, §7, §8, §9

[6] = test system: Neisseria gonorrhoeae from clinical sample 2; experiment: Antibiotic resistance panel assay on cervicovaginal swab; conditions: mutations in penA, gyrA, ponA, parC, porB, mtrR, rpsJ
Description: as §10

[7] = test system: Neisseria gonorrhoeae isolates containing mosaic penA; conditions: cited from earlier work
[8] = test system: Neisseria gonorrhoeae strain ATCC 31953; experiment: Neisseria gonorrhoeae antibiotic resistance panel assay (multiplex PCR + allele-specific primer extension); conditions: concluded from mutations/genetic markers detected
Description: as §1, §2, §3, §4, §5, §6, §7, §8, §9

[9] = test system: Neisseria gonorrhoeae strain ATCC 49226; experiment: as above; conditions: concluded from mutations/genetic markers detected
Description: as §1, §2, §3, §4, §5, §6, §7, §8, §9

[10] = test system: Neisseria gonorrhoeae from clinical sample 3; experiment: Antibiotic resistance panel assay on cervicovaginal swab; conditions: mutations in penA and rpsJ

Compound	level of antibiotic resistance implied by panel assay [1]	Antibiotic Resistance Profile Using our Assay [2]	Antibiotic Resistance Profile Using our Assay [3]	Antibiotic Resistance Profile Using our Assay [4]	Antibiotic Resistance Profile Using our Assay [5]	level of resistance implied by panel assay [6]	MICs ([7]; three of five mosaic penA isolates containing the G545S C-terminal mutation)	MICs ([7]; two mosaic penA isolates without the G545S C-terminal mutation)	Antibiotic Resistance Profile Using our Assay [8]	Antibiotic Resistance Profile Using our Assay [9]	level of resistance implied by panel assay [10]
CC[C@H]1OC(=O)[C@H](C)[C@@H](O[C@H]2C[C@@](C)(OC)[C@@H](O)[C@H](C)O2)[C@H](C)[C@@H](O[C@@H]2O[C@H](C)C[C@H](N(C)C)[C@H]2O)[C@](C)(O)C[C@@H](C)CN(C)[C@H](C)[C@@H](O)[C@]1(C)O [azithromycin]	intermediate level of antibiotic resistance	susceptible	resistant	susceptible	resistant	intermediate level of resistance	–	–	–	–	–
CO/N=C(\C(=O)N[C@@H]1C(=O)N2C(C(=O)O)=C(CSc3nc(=O)c(=O)[nH]n3C)CS[C@H]12)c1csc(N)n1 [ceftriaxone]	–	–	–	–	–	–	elevated MICs	wild-type MICs	–	–	–
O=C(O)c1cn(C2CC2)c2cc(N3CCNCC3)c(F)cc2c1=O [ciprofloxacin]	–	susceptible	resistant	susceptible	resistant	–	–	–	resistant	–	–
CN[C@@H]1[C@H](O)[C@H](NC)[C@H]2O[C@@]3(O)C(=O)C[C@@H](C)O[C@H]3O[C@@H]2[C@H]1O [spectinomycin]	–	susceptible	–	susceptible	–	–	–	–	–	–	–
penicillin	intermediate level of antibiotic resistance	susceptible	resistant	susceptible	resistant	high level of resistance	–	–	–	resistant	low level of resistance
